Source: patent US20180280302A1, “SOLID DISPERSIONS OF COMPOUNDS USING POLYVINYL ALCOHOL AS A CARRIER POLYMER” (MERCK PATENT GMBH, priority 2015, published 2018)

Assays:
[1] = cited from earlier work
[2] = Dissolution of IBU compositions in SGFsp pH 1.2 (USP apparatus II, fiber-optic UV); type: physicochemical; details: at 2 hours
Experimental: All dissolution tests were conducted in a Vankel VK-7000 (Varian, Inc.) USP apparatus II (paddle) dissolution tester. The dissolution medium was maintained at 37° C. with a recirculating heater and a paddle speed of 75 RPM was constant throughout the test. The theoretical equivalent of 200 mg of IBU (1.0 g of KSD product) was added to each vessel containing 1 L of the dissolution medium (n=3). […] The dissolution medium recipe (SGFsp) consisted of 2.0 g NaCl and 80 ml of 0.1 N HCl in a total of 1 L of purified water (pH=1.2). The dissolution medium was degassed prior to testing by the heat/sonication method.
The concentration of IBU in solution during the 120 minute dissolution test (shown in Table 10) was measured once per minute using a Pion Spectra in-situ fiber-optic UV-diss system (Pion, Inc., Billerica, Mass.) with a 1 mm path length probe tip. Concentrations were determined by integrating the area under the UV absorption curve in a wavelength range of 216 to 222 nm with a baseline correction at 450 nm. Linearity was established over a range of 1.4 to 200 μg/ml with a correlation coefficient of 0.9992. A diluents consisting of 7:3 (V/V) SGFsp:Acetonitrile (HPLC grade, no UV absorption beyond 190 nm) was used to generate the IBU standard curve.

| Molecule | pKa [1] | final concentration [2] [mg/mL] |
| --- | --- | --- |
| Cc1ccnc2c1NC(=O)c1cccnc1N2C1CC1 [Nevirapine] | 2.8 |  |
| CC(C)Cc1ccc(C(C)C(=O)O)cc1 (stereo not drawn) [Pure Ibuprofen, Ibuprofen] |  | > 0.02 |
| Acetriptan | 4.9 |  |
